Experimental data published in the NIST ThermoML archive (doi:10.1016/j.tca.2012.04.001).

Columns and labels:
[1] = 101.33 kPa, Liquid, Vibrating tube method
[2] = xn = mol fraction of the nth substance listed; conditions: 101 kPa, Liquid, Vibrating tube method

CCCCCl [1-chlorobutane]
[1]
Conditions	mass density [kg/m3]
288.15 K	891.747
303.15 K	875.099
313.15 K	863.833

CCCCCl [1-chlorobutane] + CCC(C)=O
mass density [kg/m3], [2]
Conditions	288.15 K	303.15 K	313.15 K
x1 = 0.0603	815.629	799.819	789.16
x1 = 0.102	819.225	803.373	792.657
x1 = 0.1968	827.479	811.507	800.7
x1 = 0.2964	835.868	819.774	808.881
x1 = 0.4017	844.704	828.487	817.514
x1 = 0.4502	848.687	832.432	821.402
x1 = 0.5138	853.847	837.516	826.466
x1 = 0.5467	856.509	840.156	829.081
x1 = 0.6451	864.357	847.919	836.788
x1 = 0.6988	868.609	852.133	840.975
x1 = 0.7994	876.429	859.878	848.676
x1 = 0.8296	878.808	862.217	850.983
x1 = 0.9037	884.435	867.832	856.591
x1 = 0.9336	886.734	870.09	858.856

CCCCCl [1-chlorobutane] + CCCCCCC
mass density [kg/m3], [2]
Conditions	288.15 K	303.15 K	313.15 K
x1 = 0.0407	694.279	681.416	672.687
x1 = 0.0779	699.652	686.682	677.87
x1 = 0.1497	710.416	697.174	688.219
x1 = 0.2169	720.981	707.546	698.49
x1 = 0.2496	726.25	712.73	703.568
x1 = 0.2565	727.4	713.798	704.618
x1 = 0.2999	734.714	720.999	711.752
x1 = 0.363	745.784	731.835	722.416
x1 = 0.4023	752.916	738.839	729.286
x1 = 0.5009	771.635	757.206	747.426
x1 = 0.5052	772.539	758.088	748.294
x1 = 0.5987	791.61	776.768	766.715
x1 = 0.7138	817.052	801.757	791.398
x1 = 0.7493	825.378	809.928	799.44
x1 = 0.8009	837.92	822.176	811.608
x1 = 0.8875	860.284	844.077	833.14
x1 = 0.9476	876.694	860.27	849.181

CCC(C)=O [butanone]
[1]
Conditions	mass density [kg/m3]
288.15 K	810.328
303.15 K	794.629
313.15 K	784.008

CCC(C)=O [butanone] + CCCCCCC
mass density [kg/m3], [2]
Conditions	288.15 K	303.15 K	313.15 K
x2 = 0.0488	799.693	784.166	773.658
x2 = 0.0875	791.829	776.433	766.011
x2 = 0.1976	771.92	756.87	746.674
x2 = 0.2409	764.837	749.92	739.808
x2 = 0.2995	755.954	741.212	731.216
x2 = 0.3726	745.725	731.183	721.184
x2 = 0.444	736.645	722.313	712.588
x2 = 0.4708	733.346	719.166	709.492
x2 = 0.5132	728.532	714.398	704.806
x2 = 0.5941	719.999	706.083	696.646
x2 = 0.7024	709.67	696.076	686.851
x2 = 0.7471	705.937	692.464	683.324
x2 = 0.8016	701.621	688.317	679.294
x2 = 0.8341	699.194	686.007	677.044
x2 = 0.896	694.863	681.831	672.997
x2 = 0.9545	691.133	678.282	669.575

CCCCCCC [heptane]
[1]
Conditions	mass density [kg/m3]
288.15 K	688.588
303.15 K	675.838
313.15 K	665.838

CCCC(C)=O [pentan-2-one]
[1]
Conditions	mass density [kg/m3]
288.15 K	811.491
303.15 K	796.955
313.15 K	787.16

CCCC(C)=O [pentan-2-one] + CCCCCCC
mass density [kg/m3], [2]
Conditions	288.15 K	303.15 K	313.15 K
x2 = 0.0562	801.549	787.145	777.44
x2 = 0.1047	793.314	778.964	769.309
x2 = 0.1946	778.848	764.618	755.031
x2 = 0.2463	770.971	756.828	747.271
x2 = 0.3006	763.126	748.98	739.521
x2 = 0.312	761.486	747.38	737.93
x2 = 0.3664	754.046	740.019	730.578
x2 = 0.4233	746.601	732.618	723.231
x2 = 0.4921	738.067	724.274	714.996
x2 = 0.5566	730.511	716.874	707.632
x2 = 0.6001	725.625	712.061	702.877
x2 = 0.7003	715.045	701.616	692.572
x2 = 0.7526	709.893	696.524	687.536
x2 = 0.8233	703.177	689.947	681.074
x2 = 0.8918	697.119	684.045	675.297
x2 = 0.95	692.408	679.462	670.763

CCCC(C)=O [pentan-2-one] + CCCCCl
mass density [kg/m3], [2]
Conditions	288.15 K	303.15 K	313.15 K
x2 = 0.0725	816.977	802.287	792.387
x2 = 0.1054	819.501	804.742	794.796
x2 = 0.1321	821.521	806.72	796.726
x2 = 0.2299	829.083	814.071	803.941
x2 = 0.2994	834.489	819.331	809.089
x2 = 0.3515	838.598	823.323	813
x2 = 0.4369	845.4	829.942	819.494
x2 = 0.493	849.874	834.295	823.772
x2 = 0.5816	857.018	841.242	830.585
x2 = 0.6518	862.707	846.788	836.036
x2 = 0.6948	866.208	850.202	839.378
x2 = 0.749	870.664	854.538	843.633
x2 = 0.8055	875.345	859.097	848.116
x2 = 0.8359	877.911	861.609	850.574
x2 = 0.8866	882.185	865.757	854.665
x2 = 0.9145	884.566	868	856.9
